Literature values as cited in EP2511272B1, “Synthetic analogues of abscisic acid with anti-inflammatory and insulin release stimulation effects on human cells” (Universita' degli Studi di Genova, priority 2011, dated 2012).

Target: T1, ABA receptor (Homo sapiens, UniProt Q9NS86)
T1 construct: Human granulocytes (7 x 10^6 per point), after ON incubation in complete DMEM/F12, were incubated in triplicate; endogenous in cells; host or cells: human granulocytes (intact cells)
T1 sequence (Q9NS86 1-450): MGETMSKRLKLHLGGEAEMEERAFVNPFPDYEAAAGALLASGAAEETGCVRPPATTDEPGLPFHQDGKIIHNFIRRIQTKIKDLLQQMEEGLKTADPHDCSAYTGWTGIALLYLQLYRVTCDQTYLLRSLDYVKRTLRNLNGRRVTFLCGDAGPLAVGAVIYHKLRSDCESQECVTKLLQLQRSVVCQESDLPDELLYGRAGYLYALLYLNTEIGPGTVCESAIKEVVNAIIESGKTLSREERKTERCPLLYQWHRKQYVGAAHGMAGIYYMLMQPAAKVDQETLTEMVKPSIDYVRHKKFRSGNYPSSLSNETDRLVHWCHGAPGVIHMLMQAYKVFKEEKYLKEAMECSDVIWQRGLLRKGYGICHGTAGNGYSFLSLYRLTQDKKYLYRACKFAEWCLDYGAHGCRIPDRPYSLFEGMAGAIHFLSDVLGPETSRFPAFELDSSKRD
Settings: value used in Cheng-Prusoff equation (Yamazaki e al., 2003); cited from earlier work

SMILES: CC1=CC(=O)CC(C)(C)C1(O)/C=C/C(C)=C\C(=O)O (racemic) [ABA, (2Z,4E)-5-(1-hydroxy-2,6,6-trimethyl-4-oxo-2-cyclohexen-1-yl)-3-methyl-2,4-pentadienoic acid, reference compound]
- Kd: 11 nM
